Each structure is given as a SMILES string.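 1) Cells in 96-well plates. 2) Compound, 48 h, 5 concentrations. 3) Linear interpolation between surrounding doses. 4) Unreached endpoint = highest concentration. The concentration for full growth arrest is given as TGI.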

Some test systems named below: MDA-MB-231 breast; SK-MEL-5 melanoma; UO-31 renal; SF-539 CNS; UACC-62 melanoma; SF-268 CNS; NCI/ADR-RES ovarian; RPMI-8226 leukemia; SK-OV-3 ovarian; SNB-19 CNS; T-47D breast; BT-549 breast; MDA-MB-435; HT29 colon; OVCAR-5 ovarian; NCI-H460 lung.
What all share (assay): DTP human tumour cell line panel, 48 h

For the molecule `O=C1c2cccc3cccc(c23)C(=O)N1CCCNCCCCNCCCN1C(=O)c2cccc3cccc(c23)C1=O`, the TGI in the assay with MDA-MB-231 breast came to 1.09 µM; in the assay with SK-MEL-5 melanoma it was 1.93 µM; in the assay on UO-31 renal, 5.51 µM; in the assay with SF-539 CNS it was 1.57 µM; in the assay on UACC-62 melanoma, 1.44 µM; in the assay with SF-268 CNS it was 0.605 µM. For the same molecule, the TGI with NCI/ADR-RES ovarian was 32.3 µM; in the assay on RPMI-8226 leukemia it was 0.179 µM; in the assay with SK-OV-3 ovarian, 6.65 µM; in the assay with SNB-19 CNS it was 4.35 µM; in the assay with T-47D breast it was 4.32 µM; with BT-549 breast, 3.02 µM. For the same molecule, the TGI with MDA-MB-435 came out at 1.28 µM; in the assay with HT29 colon it was 1.27 µM; in the assay on OVCAR-5 ovarian, 2.44 µM.
`CO[C@H]1O[C@@H]2CO[C@@H](c3ccccc3)O[C@H]2[C@@H]2CC=CCC[C@]12O`: the TGI with MDA-MB-231 breast was over 100 µM; with SK-MEL-5 melanoma, over 100 µM; in the assay on NCI-H460 lung, over 100 µM; with UO-31 renal, over 100 µM; in the assay with UACC-62 melanoma, over 100 µM; with SF-268 CNS it was 51 µM. Further, the TGI is over 100 µM with NCI/ADR-RES ovarian; 90.1 µM with RPMI-8226 leukemia; over 100 µM in the assay on SK-OV-3 ovarian; over 100 µM in the assay with SNB-19 CNS; over 100 µM in the assay with T-47D breast; 69 µM in the assay with BT-549 breast. The TGI with MDA-MB-435, with HT29 colon and with OVCAR-5 ovarian was over 100 µM throughout.
As for `O=C(O)CN=C(C(=NCC(=O)O)c1ccccc1)c1ccccc1`, the TGI in the assay with MDA-MB-231 breast, in the assay on NCI-H460 lung, in the assay with UO-31 renal, with UACC-62 melanoma, in the assay with SF-268 CNS and with NCI/ADR-RES ovarian was over 100 µM in each case. Further, the TGI in the assay on RPMI-8226 leukemia, in the assay on SK-OV-3 ovarian, with SNB-19 CNS, in the assay on T-47D breast, with BT-549 breast and in the assay on MDA-MB-435 was over 100 µM each time. This molecule yielded a TGI with OVCAR-5 ovarian of over 100 µM.
Take `CC(CN(C)C)C(=O)c1ccccc1C(=O)O` (configuration not stated): the concentration for total growth inhibition (TGI) was 81.6 µM with MDA-MB-231 breast; over 100 µM with SK-MEL-5 melanoma; over 100 µM in the assay on UO-31 renal; 51.3 µM with UACC-62 melanoma; over 100 µM in the assay on SF-268 CNS; 92.6 µM in the assay on NCI/ADR-RES ovarian. Further, the TGI is 78 µM in the assay on RPMI-8226 leukemia; over 100 µM in the assay with SK-OV-3 ovarian; over 100 µM in the assay with SNB-19 CNS; over 100 µM in the assay on T-47D breast; 41.7 µM with BT-549 breast; 50.9 µM in the assay on MDA-MB-435. Besides, the TGI with HT29 colon and in the assay on OVCAR-5 ovarian was over 100 µM in each case.
For `C[C@]12CCC3c4ccc(O)cc4CC[C@H]3C1CC(=O)N(N)C2=O` (some centres not stated), the TGI in the assay with MDA-MB-231 breast, in the assay with SK-MEL-5 melanoma, in the assay with NCI-H460 lung, with UO-31 renal, with SF-539 CNS and with UACC-62 melanoma was over 100 µM throughout. Also, the TGI in the assay with SF-268 CNS, with SK-OV-3 ovarian, with SNB-19 CNS, in the assay on T-47D breast, in the assay on BT-549 breast and with MDA-MB-435 was over 100 µM each time. For the same molecule, the TGI with HT29 colon and in the assay on OVCAR-5 ovarian was over 100 µM in each case.
On to `O=C1CSC(/C=C/c2ccccc2)N1c1ccc(-c2ccc(-n3c(-c4ccccc4)nc4ccccc4c3=O)cc2)cc1` (configuration not stated), for which the TGI is over 100 µM in the assay on MDA-MB-231 breast; 27.7 µM with SK-MEL-5 melanoma; over 100 µM with NCI-H460 lung; 50.6 µM with UO-31 renal; over 100 µM in the assay with UACC-62 melanoma; over 100 µM in the assay with SF-268 CNS. The TGI with NCI/ADR-RES ovarian was over 100 µM; in the assay on RPMI-8226 leukemia, over 100 µM; with SK-OV-3 ovarian it was over 100 µM; in the assay with SNB-19 CNS, 62.3 µM; in the assay with T-47D breast, over 100 µM; in the assay on BT-549 breast, 39.2 µM. In addition, the TGI in the assay with MDA-MB-435 is 49.3 µM; in the assay with HT29 colon it was 34 µM; in the assay with OVCAR-5 ovarian, 41.6 µM.
As for `O=c1[nH]c(=O)n(C2CC(O)C(CO)O2)cc1OCCc1ccccc1` (configuration not stated), the TGI in the assay on MDA-MB-231 breast, with SK-MEL-5 melanoma, in the assay with UO-31 renal, in the assay on UACC-62 melanoma, with SF-268 CNS and with NCI/ADR-RES ovarian was over 100 µM throughout. Besides, the TGI with RPMI-8226 leukemia, in the assay with SK-OV-3 ovarian, in the assay on SNB-19 CNS, in the assay on T-47D breast, in the assay on BT-549 breast and in the assay on MDA-MB-435 was over 100 µM each time. The TGI in the assay with HT29 colon and in the assay with OVCAR-5 ovarian was over 100 µM throughout.
Consider `CSc1ccccc1P(c1ccccc1SC)c1ccccc1SC`, for which the TGI in the assay on MDA-MB-231 breast, in the assay on SK-MEL-5 melanoma, in the assay with UO-31 renal, in the assay on SF-539 CNS, with UACC-62 melanoma and in the assay on SF-268 CNS was over 100 µM throughout. The TGI in the assay with NCI/ADR-RES ovarian, in the assay on RPMI-8226 leukemia, in the assay on SK-OV-3 ovarian, with SNB-19 CNS, in the assay with T-47D breast and with BT-549 breast was over 100 µM throughout. Also, the TGI in the assay on MDA-MB-435 and with OVCAR-5 ovarian was over 100 µM in each case.
For the molecule `CNC(=O)CCNC(=O)CCC(=O)N(C)C`, the TGI with MDA-MB-231 breast, in the assay with SK-MEL-5 melanoma, in the assay on NCI-H460 lung, in the assay with UO-31 renal, with SF-539 CNS and with UACC-62 melanoma was over 100 µM throughout. Also, the TGI with SF-268 CNS, in the assay with NCI/ADR-RES ovarian, with RPMI-8226 leukemia, with SK-OV-3 ovarian, with SNB-19 CNS and in the assay on T-47D breast was over 100 µM in each case. Besides, the TGI with MDA-MB-435, in the assay on HT29 colon and with OVCAR-5 ovarian was over 100 µM in each case.
Consider `N#Cc1nc(C2CC2)oc1N`, for which the TGI in the assay on MDA-MB-231 breast, in the assay on SF-539 CNS, in the assay on UACC-62 melanoma, with SF-268 CNS, with NCI/ADR-RES ovarian and with RPMI-8226 leukemia was over 100 µM each time. The TGI with SK-OV-3 ovarian, in the assay on SNB-19 CNS, in the assay on T-47D breast, with BT-549 breast, in the assay on MDA-MB-435 and in the assay on HT29 colon was over 100 µM each time. The TGI in the assay on OVCAR-5 ovarian was over 100 µM.

Values taken from PubChem BioAssay (NCI).
